Assays:
MRSA-171 = experiment: Paper diffusion method drug sensitivity test, MRSA-171; type: cell-based, Staphylococcus aureus; conditions: for Zone of inhibition: MRSA-171, 30 μg/tablet paper disc 6.35 mm, LB plate, 37° C., 24 h, ≥17 mm sensitive, 15-16 mm intermediary, ≤14 mm drug resistance
[1] = system: multi-resistant Staphylococcus aureus 596 (MRSA-596); experiment: Paper diffusion method drug sensitivity test, MRSA-596; type: cell-based; conditions: for Zone of inhibition: MRSA-596, 30 μg/tablet paper disc 6.35 mm, LB plate, 37° C., 24 h, ≥17 mm sensitive, 15-16 mm intermediary, ≤14 mm drug resistance
Experimental: (§1) The antimicrobial efficacy was determined by a paper diffusion method drug sensitivity test.
(§2) E Experimental strains: multi-resistant Staphylococcus aureus 206 (MRSA-206), multi-resistant Staphylococcus aureus 575 (MRSA-575), multi-resistant Staphylococcus aureus 596 (MRSA-596). The experimental strain was identified by Huashan Hospital Affiliated to Fudan University (Institute of Antibiotic of Fudan University).
(§3) Drug sensitive paper: The drug sensitive paper was a special drug sensitive paper with a diameter of 6.35 mm and a water absorption of 0.02 mL. The control drug was vancomycin (30 μg/tablet); the test drugs were pleuromulin (30 μg/tablet), salicylic acid (30 μg/tablet) and pleuromulin salicylic acid ester (30 μg/tablet).
(§4) Reagents: LB agar medium, LA broth medium, 0.5% DMSO solution.
(§5) T The experimental strains were inoculated in non-selective medium and placed in air at 37° C. for 24 h. A single colony that grows well and inoculate it into broth medium was incubate at 35° C.±2° C. for 6 hours, and LA broth medium was used to calibrate the concentration of the bacterial solution to 0.5 Mie turbidimetric tube (1.5×10^8 CFU/mL). A bacterial suspension was obtained.
(§6) LB dry powder was weighed, sterilized at 103.4 Kpa, 121.3° C. high-pressure steam for 15 min, and then placed it in a 40° C.-50° C. water bath. A sterile empty plate (inner diameter 9 cm) was placed on the surface of the ultra-clean table water table, and […] to the plate. The thickness of each plate was 3 mm to 4 mm. After the plate was cooled at room temperature, it was stored in the refrigerator at 2° C.-8° C. A sterile cotton swab was used to dip the bacterial solution and ti evenly coat the surface of the LB plate 3 times. After inoculation of the bacterial suspension, the LB plate was dried at room temperature for 3 min to 5 min. Sterile forceps were used to closely attach the antibacterial drug paper to the dish. The dish was put upside down and placed in a 37° C. incubator for 24 h. The results were observed by measuring the diameter. Taking 0.5% DMSO solution as a negative control, the antibacterial activity is expressed by the diameter of the inhibition zone. The inhibition zone≥17 mm, sensitive; the inhibition zone of 15 mm-16 mm, intermediary; the inhibition zone≤14 mm, drug resistance.

drug-resistant bacteria = experiment: Paper diffusion method drug sensitivity test, overall statement on drug-resistant bacteria; type: cell-based, Staphylococcus aureus; conditions: drug-resistant bacteria in general (strains of Table 1); 30 μg/tablet
Experimental: as §1, §2, §3, §4, §5
as §6, with “Taking 0.5% DMSO solution as a negative control, the antibacterial activity is expressed by the diameter of the inhibition zone. The inhibition zone≥17 mm, sensitive; the inhibition zone of 15 mm-16 mm, intermediary; the inhibition zone≤14 mm, drug resistance.” left out

[2] = system: multi-resistant Staphylococcus aureus 575 (MRSA-575); experiment: Paper diffusion method drug sensitivity test, MRSA-575; type: cell-based; conditions: for Zone of inhibition: MRSA-575, 30 μg/tablet paper disc 6.35 mm, LB plate, 37° C., 24 h, ≥17 mm sensitive, 15-16 mm intermediary, ≤14 mm drug resistance
Experimental: as §1, §2, §3, §4, §5, §6

| SMILES | Zone of inhibition (MRSA-171) | inhibitory effect (in words) (MRSA-171; multi-drug resistant Staphylococcus aureus 171, 30 μg/tablet) | Zone of inhibition [1] | inhibitory effect (in words) ([1]; multi-drug resistant Staphylococcus aureus 596, 30 μg/tablet) | inhibitory effect on drug-resistant bacteria (in words) (drug-resistant bacteria) | Zone of inhibition [2] | inhibitory effect (in words) ([2]; multi-drug resistant Staphylococcus aureus 575, 30 μg/tablet) |
| --- | --- | --- | --- | --- | --- | --- | --- |
| C=C[C@]1(C)C[C@@H](OC(=O)COC(=O)c2ccccc2O)[C@]2(C)[C@H](C)CC[C@]3(CCC(=O)[C@H]32)[C@@H](C)[C@@H]1O | 16 mm | strong inhibitory effects | 26 mm | strong inhibitory effects | excellent antibacterial activity and anti-drug-resistant bacteria activity | 10 mm | strong inhibitory effects |
| C=C[C@]1(C)C[C@@H](OC(=O)CO)[C@]2(C)[C@H](C)CC[C@]3(CCC(=O)[C@H]32)[C@@H](C)[C@@H]1O [Pleuromulin] | 0 mm | – | 0 mm | – | no inhibitory effect | 0 mm | – |
| O=C(O)c1ccccc1O [Salicylic acid] | 0 mm | – | 0 mm | – | no inhibitory effect | 0 mm | – |
| CN[C@H](CC(C)C)C(=O)N[C@H]1C(=O)N[C@@H](CC(N)=O)C(=O)N[C@H]2C(=O)N[C@H]3C(=O)N[C@H](C(=O)N[C@H](C(=O)O)c4cc(O)cc(O)c4-c4cc3ccc4O)[C@H](O)c3ccc(c(Cl)c3)Oc3cc2cc(c3O[C@@H]2O[C@H](CO)[C@@H](O)[C@H](O)[C@H]2O[C@H]2C[C@](C)(N)[C@H](O)[C@H](C)O2)Oc2ccc(cc2Cl)[C@H]1O [Vancomycin, vancomycin] | 15 mm | – | 23 mm | – | – | 17 mm | – |
